One experiment addresses T1, JAK2 (Homo sapiens, UniProt O60674).
T1 construct: GST; purchased Life Technologies
Briefly: Biochemical JAK2 kinase assay (LanthaScreen). The settings on record: for Ki: read-out: JAK 2 (pKi) (converted). Summed up: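 GST-tagged recombinant JAK2 pre-incubated 1 h at ambient temperature with compound and GFP-STAT1 peptide in HEPES pH 7.5/MgCl2 buffer, then ATP added for a 1 h reaction with 1% DMSO. TR-FRET read after EDTA and Tb-anti-pSTAT1 (pTyr701) addition; IC50 from 4-parameter fit, converted to pKi by Cheng-Prusoff.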
For orientation: TR-FRET usually uses a lanthanide donor and a delayed reading to cut background.

Another experiment addresses T2, JAK1 (Homo sapiens, UniProt P23458).
T2 construct: GST; purchased Life Technologies
Briefly: Biochemical JAK1 kinase assay (LanthaScreen). The conditions noted are these: for Ki: read-out: JAK 1 (pKi) (converted). The method in brief: (§1)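 GST-JAK + GFP-STAT1 peptide + cpd, 1 h preinc RT; ATP start, 1% DMSO, 1 h RT; stop 10 mM EDTA + 2 nM Tb-anti-pSTAT1; 1 h; TR-FRET 520/495. % inhib vs DMSO/background → IC50 (4-PL) → pKi (Cheng-Prusoff).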

A further experiment concerns the target T3, Tyk2 (Homo sapiens, UniProt P29597).
T3 construct: GST; purchased Life Technologies
In words: Biochemical Tyk2 kinase assay (LanthaScreen). The settings on record: for Ki: read-out: Tyk 2 (pKi) (converted). Summed up:
as §1

The next experiment addresses T4, JAK3 (Homo sapiens, UniProt P52333).
T4 sequence (P52333 1-1124): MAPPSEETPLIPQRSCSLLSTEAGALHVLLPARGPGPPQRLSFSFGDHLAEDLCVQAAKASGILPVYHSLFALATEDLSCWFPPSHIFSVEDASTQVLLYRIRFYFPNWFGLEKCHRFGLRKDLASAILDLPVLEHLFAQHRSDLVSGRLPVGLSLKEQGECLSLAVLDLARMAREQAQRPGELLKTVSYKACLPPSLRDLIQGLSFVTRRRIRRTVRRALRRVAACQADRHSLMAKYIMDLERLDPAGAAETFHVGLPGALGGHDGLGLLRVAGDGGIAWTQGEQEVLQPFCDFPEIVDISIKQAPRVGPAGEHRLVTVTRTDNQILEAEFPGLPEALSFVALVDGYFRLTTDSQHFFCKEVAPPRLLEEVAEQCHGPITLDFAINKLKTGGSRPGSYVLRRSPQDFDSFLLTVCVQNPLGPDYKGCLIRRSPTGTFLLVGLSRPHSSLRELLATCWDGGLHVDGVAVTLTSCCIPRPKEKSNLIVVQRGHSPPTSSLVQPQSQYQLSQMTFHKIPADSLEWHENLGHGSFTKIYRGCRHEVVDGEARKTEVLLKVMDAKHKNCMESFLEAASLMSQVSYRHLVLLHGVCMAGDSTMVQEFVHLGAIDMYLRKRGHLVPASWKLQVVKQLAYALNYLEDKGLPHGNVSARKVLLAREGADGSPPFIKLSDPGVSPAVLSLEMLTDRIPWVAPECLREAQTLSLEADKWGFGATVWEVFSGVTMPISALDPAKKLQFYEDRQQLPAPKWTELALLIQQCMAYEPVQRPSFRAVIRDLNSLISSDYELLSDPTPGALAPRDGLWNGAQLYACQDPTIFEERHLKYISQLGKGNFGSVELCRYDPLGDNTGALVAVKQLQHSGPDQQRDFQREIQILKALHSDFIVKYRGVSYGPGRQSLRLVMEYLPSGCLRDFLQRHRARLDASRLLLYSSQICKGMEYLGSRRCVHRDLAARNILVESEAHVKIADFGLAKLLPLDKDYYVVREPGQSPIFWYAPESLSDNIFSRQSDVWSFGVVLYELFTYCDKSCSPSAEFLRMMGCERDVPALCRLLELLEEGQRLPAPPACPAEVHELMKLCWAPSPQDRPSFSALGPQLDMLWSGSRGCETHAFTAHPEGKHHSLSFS
Briefly: Biochemical JAK3 kinase assay (LanthaScreen). More on the design: GST; purchased Life Technologies. The settings on record: for Ki: read-out: JAK 3 (pKi) (converted). Summed up: as §1

Experiment [1] deals with IL-2 stimulated pSTAT5 in Tall-1 T cells. In words: Cellular JAK3 potency assay: inhibition of IL-2 stimulated pSTAT5 in Tall-1 T cells. The experiment is classed as cell-based, human. The settings on record: for IC50: Homo sapiens, read-out: Tall-1 (pIC50) (converted). The method in brief:
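In human Tall-1 T cells, IL-2 (300 ng/ml final, 30 min) drives STAT5 phosphorylation after a 1 h compound pretreatment. Lysates are assayed for pSTAT5 by AlphaLisa, and IC50 derived from signal versus concentration is expressed as pIC50.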

Setting [2] is: selectivity: difference of pKi JAK3 and pKi JAK1.
[3] abbreviates: selectivity JAK3 over JAK1, difference of pKi.
Setting [4] is: IL-2 stimulated pSTAT5, Tall-1 T cells.

Data on seven compounds can be found in patent US10392368B2, “Pyrazolo and triazolo bicyclic compounds as JAK kinase inhibitors” (THERAVANCE BIOPHARMA R&D IP, LLC, priority 2017, dated 2019).

The structures appear in SMILES notation. Where two headings read alike, the source gives them in different places.

T2 sequence (P23458 whole entry): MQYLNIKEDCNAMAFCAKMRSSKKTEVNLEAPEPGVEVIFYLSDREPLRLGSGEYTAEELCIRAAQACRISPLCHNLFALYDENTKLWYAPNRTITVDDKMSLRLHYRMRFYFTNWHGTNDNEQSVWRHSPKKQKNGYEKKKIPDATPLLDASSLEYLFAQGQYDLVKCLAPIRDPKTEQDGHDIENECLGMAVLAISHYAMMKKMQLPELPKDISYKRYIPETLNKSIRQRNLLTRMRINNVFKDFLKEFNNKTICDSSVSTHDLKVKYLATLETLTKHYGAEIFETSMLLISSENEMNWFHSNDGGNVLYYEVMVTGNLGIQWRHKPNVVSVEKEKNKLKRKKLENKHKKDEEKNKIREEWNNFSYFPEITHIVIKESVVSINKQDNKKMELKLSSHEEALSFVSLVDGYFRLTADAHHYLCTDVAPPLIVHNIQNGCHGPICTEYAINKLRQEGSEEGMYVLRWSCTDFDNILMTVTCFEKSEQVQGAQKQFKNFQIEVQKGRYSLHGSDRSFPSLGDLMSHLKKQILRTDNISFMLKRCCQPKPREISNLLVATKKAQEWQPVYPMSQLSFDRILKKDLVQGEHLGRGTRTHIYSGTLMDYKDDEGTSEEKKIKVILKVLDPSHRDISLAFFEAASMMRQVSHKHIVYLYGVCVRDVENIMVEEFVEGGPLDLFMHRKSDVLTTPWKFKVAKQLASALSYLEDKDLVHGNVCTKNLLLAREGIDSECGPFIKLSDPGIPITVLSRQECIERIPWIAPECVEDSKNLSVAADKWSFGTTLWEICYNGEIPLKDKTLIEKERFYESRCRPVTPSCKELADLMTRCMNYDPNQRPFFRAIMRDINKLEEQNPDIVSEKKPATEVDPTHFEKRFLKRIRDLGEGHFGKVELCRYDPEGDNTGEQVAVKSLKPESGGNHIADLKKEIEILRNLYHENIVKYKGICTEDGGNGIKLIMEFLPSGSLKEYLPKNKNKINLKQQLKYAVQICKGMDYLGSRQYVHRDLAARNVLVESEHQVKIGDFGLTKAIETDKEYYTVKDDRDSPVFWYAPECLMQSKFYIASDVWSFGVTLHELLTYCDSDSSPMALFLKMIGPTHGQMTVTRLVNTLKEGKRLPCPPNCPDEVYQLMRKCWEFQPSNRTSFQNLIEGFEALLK
T1 sequence (O60674 whole entry): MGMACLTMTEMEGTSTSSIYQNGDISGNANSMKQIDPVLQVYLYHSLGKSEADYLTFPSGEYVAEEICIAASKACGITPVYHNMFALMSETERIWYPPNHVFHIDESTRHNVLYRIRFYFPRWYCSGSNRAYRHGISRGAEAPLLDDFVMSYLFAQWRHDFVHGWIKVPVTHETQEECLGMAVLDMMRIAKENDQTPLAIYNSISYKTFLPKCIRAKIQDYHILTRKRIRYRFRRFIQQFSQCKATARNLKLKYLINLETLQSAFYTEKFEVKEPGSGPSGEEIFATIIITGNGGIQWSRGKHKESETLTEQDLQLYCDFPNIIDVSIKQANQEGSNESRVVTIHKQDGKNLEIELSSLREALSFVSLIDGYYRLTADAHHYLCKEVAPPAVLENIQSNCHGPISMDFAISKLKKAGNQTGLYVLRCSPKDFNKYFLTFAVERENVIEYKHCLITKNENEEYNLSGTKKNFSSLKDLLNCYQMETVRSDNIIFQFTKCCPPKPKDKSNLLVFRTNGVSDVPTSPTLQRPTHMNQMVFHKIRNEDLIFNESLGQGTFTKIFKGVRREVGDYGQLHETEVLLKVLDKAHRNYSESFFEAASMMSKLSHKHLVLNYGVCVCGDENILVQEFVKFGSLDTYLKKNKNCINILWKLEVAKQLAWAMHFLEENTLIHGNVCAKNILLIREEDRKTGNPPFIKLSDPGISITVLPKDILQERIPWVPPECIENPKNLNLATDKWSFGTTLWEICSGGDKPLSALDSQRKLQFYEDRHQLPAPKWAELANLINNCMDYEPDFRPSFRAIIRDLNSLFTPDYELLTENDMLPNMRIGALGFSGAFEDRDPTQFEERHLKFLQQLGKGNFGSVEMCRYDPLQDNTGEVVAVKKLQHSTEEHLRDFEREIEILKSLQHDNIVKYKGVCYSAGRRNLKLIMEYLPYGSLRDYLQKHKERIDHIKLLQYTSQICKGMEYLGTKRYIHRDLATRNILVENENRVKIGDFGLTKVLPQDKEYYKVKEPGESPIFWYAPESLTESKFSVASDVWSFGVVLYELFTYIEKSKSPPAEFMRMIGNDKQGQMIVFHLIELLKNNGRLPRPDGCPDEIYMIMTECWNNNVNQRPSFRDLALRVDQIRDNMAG
T3 sequence (P29597 whole entry): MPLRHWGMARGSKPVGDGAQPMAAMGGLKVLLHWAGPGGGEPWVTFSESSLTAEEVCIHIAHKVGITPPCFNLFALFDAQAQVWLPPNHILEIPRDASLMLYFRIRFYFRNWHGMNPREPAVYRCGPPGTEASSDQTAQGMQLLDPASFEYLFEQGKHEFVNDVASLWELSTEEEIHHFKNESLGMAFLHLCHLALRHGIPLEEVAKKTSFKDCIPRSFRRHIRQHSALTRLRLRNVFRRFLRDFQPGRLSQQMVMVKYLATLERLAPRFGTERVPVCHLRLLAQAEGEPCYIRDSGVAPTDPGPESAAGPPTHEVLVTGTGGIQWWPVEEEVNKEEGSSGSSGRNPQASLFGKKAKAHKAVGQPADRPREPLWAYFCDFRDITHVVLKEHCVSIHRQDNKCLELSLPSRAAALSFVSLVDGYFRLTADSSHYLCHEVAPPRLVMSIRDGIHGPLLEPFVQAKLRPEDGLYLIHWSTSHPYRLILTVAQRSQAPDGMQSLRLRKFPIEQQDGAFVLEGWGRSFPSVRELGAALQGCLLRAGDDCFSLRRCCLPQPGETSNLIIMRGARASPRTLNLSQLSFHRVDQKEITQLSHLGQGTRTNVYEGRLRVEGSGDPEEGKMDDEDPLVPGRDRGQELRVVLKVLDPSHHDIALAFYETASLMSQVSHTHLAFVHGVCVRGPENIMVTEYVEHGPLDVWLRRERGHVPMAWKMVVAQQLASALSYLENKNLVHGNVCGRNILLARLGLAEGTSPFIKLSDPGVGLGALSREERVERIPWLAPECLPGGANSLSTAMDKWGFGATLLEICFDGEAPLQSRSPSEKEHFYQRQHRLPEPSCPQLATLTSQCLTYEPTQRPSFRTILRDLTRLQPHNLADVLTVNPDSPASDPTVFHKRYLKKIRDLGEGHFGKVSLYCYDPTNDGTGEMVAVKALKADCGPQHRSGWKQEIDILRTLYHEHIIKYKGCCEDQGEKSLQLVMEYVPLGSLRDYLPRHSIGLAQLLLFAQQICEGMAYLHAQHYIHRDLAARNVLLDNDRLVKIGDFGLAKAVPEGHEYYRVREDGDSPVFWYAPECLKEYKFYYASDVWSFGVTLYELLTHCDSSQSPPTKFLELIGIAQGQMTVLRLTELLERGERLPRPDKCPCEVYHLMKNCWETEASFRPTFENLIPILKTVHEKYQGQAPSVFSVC

Take `CN(C)C/C=C/C(=O)N1CC(Oc2cc(-c3ccc(O)c(F)c3)cc3[nH]ncc23)C1` [Compound 5-5]: the “JAK 2 (pKi)” value at JAK2 was “D (a pKi value between 7 and 8 (Ki between 100 nM and 10 nM))”. Also, on JAK1, the “JAK 1 (pKi)” value is “E (a pKi value of 7 or below (Ki of 100 nM or above))”. The “Tyk 2 (pKi)” value on Tyk2 is listed as “E (a pKi value of 7 or below (Ki of 100 nM or above))”. For the same compound, the “JAK 3 (pKi)” value at JAK3 is given as “A (a pKi value≥10 (Ki≤0.1 nM))”. In addition, the “JAK3 (pKi)-JAK1 (pKi)” value at JAK3 (setting [2]) was “A (a value of 3 or above)”. Also, the “Tall-1 (pIC50)” value in experiment [1] (IL-2 stimulated pSTAT5 in Tall-1 T cells) is “B (a pIC50 value between 6.7 (included) and 7.5 (IC50 between 200 nM and 32 nM))”.

Regarding `C=CC(=O)N1CCO[C@@H](C(=O)Nc2cc(-c3ccc(O)c(Cl)c3)cc3[nH]ncc23)C1` [Compound 13-2], the “JAK 2 (pKi)” value at JAK2 was “E (a pKi value of 7 or below (Ki of 100 nM or above))”. Besides, the “JAK 1 (pKi)” value on JAK1 is “E (a pKi value of 7 or below (Ki of 100 nM or above))”. The “Tyk 2 (pKi)” value on Tyk2 is recorded as “E (a pKi value of 7 or below (Ki of 100 nM or above))”. At JAK3, the “JAK 3 (pKi)” value was “B (a pKi value between 9 and 10 (Ki between 1 nM and 0.1 nM))”. Moreover, the “JAK3 (pKi)-JAK1 (pKi)” value at JAK3 (setting [3]) is “A (a value of 3 or above)”. The “Tall-1 (pIC50)” value in experiment [1] (setting [4]) is “A (a pIC50 value≥7.5 (IC50≤32 nM))”.

As to `C=CC(=O)N1CC[C@H](Oc2cc(-c3ccc(O)cc3)cc3[nH]nc(C)c23)C1` [Compound 1-20], the Ki was 10 to 100 nM at JAK2, over 100 nM on JAK1, over 100 nM on Tyk2 and 0.1 to 1 nM on JAK3. Besides, the “JAK3 (pKi)-JAK1 (pKi)” value at JAK3 (setting [2]) is recorded as “B (a value of 2.3 to 3)”. Besides, the IC50 in experiment [1] (TALL-1, IL-2 stimulated pSTAT5 in Tall-1 T cells) is under 31.6 nM.

Take `C=CC(=O)N1C2CCC1CC(Oc1cc(-c3ccc(O)c(F)c3)cc3[nH]ncc13)C2` (stereo not drawn) [Compound 9-4]: the “JAK 2 (pKi)” value on JAK2 was “C (a pKi value between 8 and 9 (Ki between 10 nM and 1 nM))”. In addition, the “JAK 1 (pKi)” value at JAK1 is reported as “E (a pKi value of 7 or below (Ki of 100 nM or above))”. At Tyk2, the “Tyk 2 (pKi)” value was “E (a pKi value of 7 or below (Ki of 100 nM or above))”. In addition, the “JAK 3 (pKi)” value at JAK3 is “A (a pKi value≥10 (Ki≤0.1 nM))”. The “JAK3 (pKi)-JAK1 (pKi)” value on JAK3 (setting [3]) was “A (a value of 3 or above)”. For the same compound, the “Tall-1 (pIC50)” value in experiment [1] (setting [4]) is listed as “A (a pIC50 value≥7.5 (IC50≤32 nM))”.

For `C=CC(=O)N1CCC(Oc2cc(-c3ccc(O)cc3)nc3[nH]ncc23)CC1C` (stereo not drawn) [Compound 13-12], the “JAK 2 (pKi)” value on JAK2 is recorded as “E (a pKi value of 7 or below (Ki of 100 nM or above))”. On JAK1, the “JAK 1 (pKi)” value is “E (a pKi value of 7 or below (Ki of 100 nM or above))”. The “Tyk 2 (pKi)” value on Tyk2 is on record as “E (a pKi value of 7 or below (Ki of 100 nM or above))”. The “JAK 3 (pKi)” value at JAK3 is “B (a pKi value between 9 and 10 (Ki between 1 nM and 0.1 nM))”. In addition, at JAK3 (setting [3]), the “JAK3 (pKi)-JAK1 (pKi)” value is “A (a value of 3 or above)”. The “Tall-1 (pIC50)” value in experiment [1] (setting [4]) is “B (a pIC50 value between 6.7 (included) and 7.5 (IC50 between 200 nM and 32 nM))”.

In the case of `C=CC(=O)N1CC(COc2cc(-c3ccc(O)cc3)cc3[nH]nnc23)C1` [Compound 17-1], the “JAK 2 (pKi)” value at JAK2 is reported as “E (a pKi value of 7 or below (Ki of 100 nM or above))”. Also, the “JAK 1 (pKi)” value on JAK1 is recorded as “E (a pKi value of 7 or below (Ki of 100 nM or above))”. Besides, on Tyk2, the “Tyk 2 (pKi)” value was “E (a pKi value of 7 or below (Ki of 100 nM or above))”. Moreover, the “JAK 3 (pKi)” value at JAK3 is “B (a pKi value between 9 and 10 (Ki between 1 nM and 0.1 nM))”. For the same compound, on JAK3 (setting [3]), the “JAK3 (pKi)-JAK1 (pKi)” value is reported as “A (a value of 3 or above)”. Besides, in experiment [1] (setting [4]), the “Tall-1 (pIC50)” value was “B (a pIC50 value between 6.7 (included) and 7.5 (IC50 between 200 nM and 32 nM))”.

For `C=CC(=O)N1CC[C@@H](Nc2cc(-c3ccc(O)cc3)cc3[nH]ncc23)[C@H](C)C1` [Compound 12-17], the Ki on JAK2 is 1 to 10 nM; at JAK1 it was 10 to 100 nM; at Tyk2 it was over 100 nM; at JAK3, under 0.1 nM. The “JAK3 (pKi)-JAK1 (pKi)” value on JAK3 (setting [3]) is “B (a value of 2.3 to 3)”. Further, the IC50 in experiment [1] (TALL-1, IL-2 stimulated pSTAT5, Tall-1 T cells) is under 31.6 nM.
